Test results reported in patent publication US20130217871A1, “CONJUGATES COMPRISING HYDROXYALKYL STARCH AND A CYTOTOXIC AGENT AND PROCESS FOR THEIR PREPARATION” (priority 2010, published 2013).
Marks after values point to notes of the source that are not given here.

Legend:
[1] = test system: human large cell lung carcinoma LXFL-529; assay: Tumor growth inhibition, s.c. LXFL-529 xenograft in nude mice; assay type: in vivo, NMRI nu/nu mice; conditions: Table 14; for Tumor volume mm^3 (d 14): day 14; for RTV T/C optimum [%]: optimum day in cell
From the text: Mouse strain: NMRI nu/nu, female Animals supplied by: Charles River, Germany Age of mice at implantation: 5-7 weeks
The tumor xenografts LXFL-529 (Fiebig H H, Berger D P, Dengler W A, Wallbrecher E, Winterhalter B R: Combined In Vitro/In Vivo Test Procedure with Human Tumor Xenografts for New Drug Development. Contrib. Oncol., Basel, Karger, 1992, Vol. 42, pp 321-351) used in this study were derived from surgical specimen from patients treated at the University Hospital in Freiburg, Germany, and directly implanted into nude mice. Prior to surgery, most of the patients had not received any chemotherapy.
Tumor fragments were obtained from xenografts in serial passage in nude mice. After removal from donor mice, tumors were cut into fragments (4-5 mm diameter) and placed in PBS until subcutaneous implantation. Recipient mice were anaesthetized by inhalation of isoflurane. A small incision was made in the back and one tumor fragment per animal was transplanted with tweezers. The mice were monitored daily.
At randomization, tumor-bearing animals were stratified according to tumor volume into treatment and vehicle (control) groups. Only animals carrying one tumor of appropriate size (approximately 50-250 mm^3) were considered for randomization. Mice were randomized when the required number of mice qualified for randomization. The day of randomization was designated as day 0, which was also the first day of dosing.
(§1) All test items were formulated in 0.9% NaCl solution and given as i.v. bolus injection despite everolimus, which was given per oral.
(§2) Measurement of tumor volume and body weight as well as calculations of relative tumor volumes were carries out analogue to the procedure described in 1.3.

[2] = test system: human pancreas carcinoma ASPC-1; assay: Tumor growth inhibition, s.c. ASPC-1 xenograft in nude mice; assay type: in vivo, NMRI:nu/nu mice; conditions: 60 mg/kg/inj. i.v.
From the text: The human pancreas carcinoma ASPC-1 was used as s.c. xenotransplantation model in immunodeficient female NMRI:nu/nu mice.
The cells were obtained from ATCC and are cryo-preserved within the EPO tumor bank. They were thawed, expanded in vitro and transplanted as cell suspension subcutaneously (s.c.) in female NMRI:nu/nu mice. The tumor line ASPC-1 is used for testing new anticancer drugs or novel therapeutic strategies. It was therefore selected for this study.
For experimental use 10^7 tumor cells/mouse from the in vitro passage were transplanted s.c. into the flank of each of 10 mice/group at day 0.
(§3) At palpable tumor size (30-100 mm^3) treatment started. The application volume was 0.2 ml/20 g mouse body weight. The test compounds, the vehicle controls and the reference compounds were all given intravenously (i.v.).
(§4) Tumor growth inhibition was used as therapeutic parameter. Additionally, body weight change was determined as signs for toxicity (particularly, potential hematological or gastrointestinal side effects).
Tumor diameters were measured twice weekly with a caliper. Tumor volumes were calculated according to V=(length x (width)^2)/2. For calculation of the relative tumor volume (RTV) the tumor volumes at each measurement day were related to the day of first treatment. At each measurement day the median and mean tumor volumes per group and also the treated to control (T/C) values in percent were calculated (Tables 11-13).
Descriptive statistics were performed on the data of body weight and tumor volume. […] Statistical evaluation was performed with the U-test of Mann and Whitney with a significance level of p≦0.05, using the Windows program […] 6.
All Gemcitabine-conjugates were stored in a freeze-dried form at −20° C. until use. Solutions were prepared immediately before injection by solving the conjugates in saline solution by vortexing in combination with centrifugation until a clear solution of the necessary concentration of the drug was obtained.
Gemcitabine (Gemzar®, charge A4781790 200 mg) was obtained from Lilly Deutschland GmbH and was stored in the dark at −20° C. until use. The final solution of Gemzar® was prepared immediately before injection by mixing the appropriate volume of the original stock solution (200 mg) with saline (0.9%, infusion solution, Ch.-Nr 0205A231, B. Braun Melsungen AG, Germany).

[3] = Toxicity in ASPC-1 tumor-bearing nude mice (body weight change, toxic death, blood counts); assay type: in vivo, NMRI:nu/nu mice
Method: as §3, §4
Individual body weights of mice were determined twice weekly and mean body weight per group was related to the initial value in percent (body weight change, BWC).
On the day of necropsy mice were sacrificed by cervical dislocation and inspected for gross organ changes.

[4] = Toxicity in LXFL-529 tumor-bearing nude mice (mortality, body weight change); assay type: in vivo; conditions: Table 14; days 0, 3, 7, 10 (20 mg/kg); 5 mice; at day 13
Method: All experiments were conducted according to the guidelines of the German Animal Welfare Act (Tierschutzgesetz). Animal health was examined prior to tumor implantation and randomization to ensure that only animals without any symptoms of disease were selected to enter testing procedures. During the experiments, animals were monitored daily regarding tumor burden, general condition, feed and water supply.
as §1, §2

[5] = days 0, 3 (10 mg/kg), 7, 10, 14 (15 mg/kg) p.o.
[6] = Table 13, days 7, 14, 21, day 27
[7] = days 0, 3, 7, 10 (20 mg/kg) i.v.

## CO[C@H]1C[C@@H]2CC[C@@H](C)[C@@](O)(O2)C(=O)C(=O)N2CCCC[C@H]2C(=O)O[C@H]([C@H](C)C[C@@H]2CC[C@@H](OCCO)[C@H](OC)C2)CC(=O)[C@H](C)/C=C(\C)[C@@H](O)[C@@H](OC)C(=O)[C@H](C)C[C@H](C)/C=C/C=C/C=C/1C [Everolimus]
[1]; [5]
  Tumor volume mm^3 (d 14): 926.1 mm^3
  RTV T/C optimum [%]: 53.9 (d 14) %

## Nc1ccn([C@@H]2O[C@H](CO)[C@@H](O)C2(F)F)c(=O)n1 [Gemcitabine]
[2]; Table 11, 9 injections, optimum at day 36
  RTV T/C (%) Optimum (at day): 41.4%
[2]; Table 11, days 9, 13, 16, 20, 23, 27, 30, 34, 40, day 44
  Tumor volume cm^3/d 44: 0.272 +/− 0.119* cm^3
[2]; Table 12, day 28
  Tumor volume cm^3/d 28: 0.159 +/− 0.058* cm^3
[2]; Table 12, optimum at day 28
  RTV T/C (%) Optimum (at day): 23.6%
[2]; [6]
  RTV T/C (%) d 27: 55.1%
  Tumor volume cm^3/d 27: 0.480 +/− 0.317 cm^3
[3]; Table 11, 60 mg/kg/inj. i.v., day 13
  Platelets × 10^6/ml (at day 13): 915 +/− 105* × 10^6/ml
[3]; Table 11, white blood cell count, 60 mg/kg/inj. i.v., day 13
  WBC × 10^6/ml (at day 13): 5.22 +/− 1.47* × 10^6/ml
[3]; Table 12, 60 mg/kg/inj. i.v., 8 treatments, 8 mice, deaths at d 15, d 18
  Toxic death (at day): 2
[3]; Table 12, body weight change, 60 mg/kg/inj. i.v., at day 17
  BWC [%] (at day): −15%
[3]; mouse, in vivo, iv, 60 mg/kg
  BWC [%] (at day): −2.4 (9) %

## CO[C@H]1C[C@@H]2CC[C@@H](C)[C@@](O)(O2)C(=O)C(=O)N2CCCC[C@H]2C(=O)O[C@H]([C@H](C)C[C@@H]2CC[C@@H](OC(=O)C(C)(CO)CO)[C@H](OC)C2)CC(=O)[C@H](C)/C=C(\C)[C@@H](O)[C@@H](OC)C(=O)[C@H](C)C[C@H](C)/C=C/C=C/C=C/1C [Temsirolimus]
[1]; [7]
  Tumor volume mm^3 (d 14): 1073.7 mm^3
  RTV T/C optimum [%]: 57.1 (d 10) %
[4]
  Mortality (at day): 1 (13)
